Assay results taken from patent US10377791B2, “Therapeutically active estratrienthiazole derivatives as inhibitors of 17 B-hydroxysteroid dehydrogenase, type 1” (FORENDO PHARMA LTD, priority 2013, dated 2019).
Where a name gives a salt, the structure may show the parent alone.

Legend:
[1] = target: T1, recombinant human 17β-HSD2 (Homo sapiens, UniProt P37059); assay: Inhibition of recombinant human 17β-HSD2; type: biochemical; conditions: inhibitor at 1 μM, 50 nM estradiol, 1 mM NADH, 30 min at RT; for inhibition at 1 µM: read-out: 17β-HSD2 Inhibition % at 1 μM
T1 construct: made in house; host or cells: Sd9 (Sf9) insect cells, baculovirus (Bac to Bac Expression System)
T1 sequence (P37059 1-387): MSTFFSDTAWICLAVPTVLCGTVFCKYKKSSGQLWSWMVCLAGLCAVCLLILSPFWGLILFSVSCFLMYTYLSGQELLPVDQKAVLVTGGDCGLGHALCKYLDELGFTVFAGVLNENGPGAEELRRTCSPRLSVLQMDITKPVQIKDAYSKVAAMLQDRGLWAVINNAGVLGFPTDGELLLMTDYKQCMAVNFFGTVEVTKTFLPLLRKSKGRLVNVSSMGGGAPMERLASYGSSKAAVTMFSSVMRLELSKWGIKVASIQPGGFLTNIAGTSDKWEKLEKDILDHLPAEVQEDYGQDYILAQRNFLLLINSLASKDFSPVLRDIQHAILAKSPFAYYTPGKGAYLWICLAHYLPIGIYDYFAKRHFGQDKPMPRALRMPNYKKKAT
Description: Similarly to 17β-HSD1 the Recombinant baculovirus was generated by the “Bac to Bac Expression System” (Invitrogen). Recombinant bacmid was transfected to Sd9 insect cells using “Cellfectin Reagent” (Invitrogen). 60 h later cells were harvested and supernatant were fractionated by the following protocol: • cells were dissolved into 40 ml of A-buffer (40 mM TRIS, pH8.0, 20% glycerol, 20 μM NAD, 0.4 mM PMSF, 150 mM NaCl, 0.5% dodecyl-β-maltoside+protease inhibitor cocktail) • cells were sonicated • lysate was incubated on ice for 15 min • lysate was centrifuged 5000 rpm 15 min, +4° C. • centrifugation of the supernatant 180 000 g 30 min, +4° C. • pellet was dissolved into 8 ml of A-buffer • not resuspended material was removed by centrifugation 5000 rpm 15 min, +4° C. • the clear supernatant was divided into 100 μl aliquots and were stored frozen until determination of enzymatic activity.
The amount of 17β-HSD2 was analysed by immunoblotting and total protein concentration of each extract batch was determined.
Recombinant protein (4 μg/ml) was incubated in 20 mM KH2PO4 pH 8.5 with 50 nM estradiol (including 800 000 cpm/ml of ^3H-estradiol) and 1 mM NADH for 30 min at RT, in the presence of the potential inhibitor at concentrations 1 μM or 0.1 μM. Inhibitor stock solutions were prepared in DMSO. Final concentration of DMSO was adjusted to 1% in all samples. The enzyme reaction was stopped by addition of 10% trichloroacetic acid (final concentration). Samples were centrifuged in a microtiter plate at 4000 rpm for 10 min. Supernatants were applied to reverse phase HPLC on a Waters Symmetry C18 column, equipped with a Waters Sentry Guard column. Isocratic HPLC runs were performed at RT at a flow rate of 1 ml/min in acetonitrile:water 48:52 as running solvent. Radioactivity was monitored in the eluate by a Packard Flow Scintillation Analyzer. Total radioactivity for estrone and estradiol were determined in each sample and percent conversion of estradiol to estrone was calculated according to the following formula:
(§1) [formula] Percent inhibition was calculated flowingly: % inhibition=100−% conversion

[2] = target: T2, recombinant human 17β-HSD1 (Homo sapiens, UniProt P14061); assay: Inhibition of recombinant human 17β-HSD1; type: biochemical; conditions: inhibitor at 1 μM, 30 nM estrone, 1 mM NADPH, 30 min at RT; for inhibition at 1 µM: read-out: 17β-HDS1 Inhibition % at 1 μM
T2 construct: made in house; host or cells: Sd9 (Sf9) insect cells, baculovirus (Bac to Bac Expression System)
T2 sequence (P14061 1-328): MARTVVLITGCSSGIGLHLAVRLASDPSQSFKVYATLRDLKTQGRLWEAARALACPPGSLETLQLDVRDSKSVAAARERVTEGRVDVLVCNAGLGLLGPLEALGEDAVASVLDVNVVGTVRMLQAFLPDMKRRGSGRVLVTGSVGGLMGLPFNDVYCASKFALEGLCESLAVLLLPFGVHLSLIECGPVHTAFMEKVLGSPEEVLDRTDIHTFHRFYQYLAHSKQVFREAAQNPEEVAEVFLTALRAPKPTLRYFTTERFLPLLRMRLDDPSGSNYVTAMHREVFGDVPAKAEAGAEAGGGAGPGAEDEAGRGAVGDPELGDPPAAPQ
Description: Recombinant baculovirus was generated by the “Bac to Bac Expression System” (Invitrogen). Recombinant bacmid was transfected to Sd9 insect cells using “Cellfectin Reagent” (Invitrogen). 60 h later cells were harvested; the microsomal fraction was isolated as described by Puranen, T. J., Poutanen, M. H., Peltoketo, H. E., Vihko, P. T. and Vihko, R. K. (1994) Site-directed mutagenesis of the putative active site of human 17 β-hydroxysteroid dehydrogenase type 1. Biochem. J. 304: 289-293. Aliquots were stored frozen until determination of enzymatic activity.
Recombinant protein (1 μg/ml) was incubated in 20 mM KH2PO4 pH 7.4 with 30 nM estrone (including 800 000 cpm/ml of ^3H-estrone) and 1 mM NADPH for 30 min at RT, in the presence of the potential inhibitor at concentrations 1 μM or 0.1 μM. Inhibitor stock solutions were prepared in DMSO. Final concentration of DMSO was adjusted to 1% in all samples. The enzyme reaction was stopped by addition of 10% trichloroacetic acid (final concentration). Samples were centrifuged in a microtiter plate at 4000 rpm for 10 min. Supernatants were applied to reverse phase HPLC on a Waters Symmetry C18 column, equipped with a Waters Sentry Guard column. Isocratic HPLC runs were performed at RT at a flow rate of 1 ml/min in acetonitrile:water 48:52 as running solvent. Radioactivity was monitored in the eluate by a Packard Flow Scintillation Analyzer. Total radioactivity for estrone and estradiol were determined in each sample and percent conversion of estrone to estradiol was calculated according to the following formula:
as §1

`Cc1cnc(NC(=O)CC[C@@H]2CC(=O)[C@@]3(C)CCC4c5ccc(O)c(F)c5CCC4C23)s1` (stereo partly drawn) [Compound 66, 3-((13S,15R)-4-fluoro-3-hydroxy-13-methyl-17-oxo-7,8,9,11,12,13,14,15,16,17-decahydro-6H-cyclopenta[a]phenanthren-15-yl)-N-(5-methylthiazol-2-yl)propanamide] gave an inhibition at 1 µM [1] of 8% and an inhibition at 1 µM [2] of 98%.
Compound `Cc1cnc(NC(=O)CC[C@@H]2CC(=O)[C@@]3(C)CCC4c5cc(CN6CCOCC6)c(O)c([N+](=O)[O-])c5CCC4C23)s1` (stereo partly drawn) [Compound 43, 3-((13S,15R)-3-hydroxy-13-methyl-2-(morpholinomethyl)-4-nitro-17-oxo-7,8,9,11,12,13,14,15,16,17-decahydro-6H-cyclopenta[a]phenanthren-15-yl)-N-(5-methylthiazol-2-yl)propanamide] has an inhibition at 1 µM [1] of 0% and an inhibition at 1 µM [2] of 94%.
In the case of `Cc1cnc(NC(=O)CC[C@@H]2CC(=O)[C@@]3(C)CCC4c5ccc(OC(=O)CCC(=O)O)cc5CCC4C23)s1` (stereo partly drawn) [Compound 10, Succinic acid mono-{(13S,15R)-13-methyl-15-[2-(5-methylthiazol-2-ylcarbamoyl)-ethyl]-17-oxo-7,8,9,11,12,13,14,15,16,17-decahydro-6H-cyclopenta[a]phenanthren-3-yl} ester sodium salt], the inhibition at 1 µM [1] is reported as 1% and the inhibition at 1 µM [2] is reported as 98%.
In the case of `Cc1cnc(NC(=O)CC[C@@H]2CC(=O)[C@@]3(C)CCC4c5ccc(OP(=O)([O-])[O-])cc5CCC4C23)s1.[Na+].[Na+]` (stereo partly drawn) [Compound 8, Phosphoric acid mono-{(13S,15R)-13-methyl-15-[2-(5-methylthiazol-2-ylcarbamoyl)-ethyl]-17-oxo-7,8,9,11,12,13,14,15,16,17-decahydro-6H-cyclopenta[a]phenanthren-3-yl} ester disodium salt], the “17β-HSD2 Inhibition % at 1 μM” value [1] is reported as 0% and the “17β-HDS1 Inhibition % at 1 μM” value [2] is reported as 81%.
`Cc1cnc(NC(=O)CC[C@@H]2CC(=O)[C@@]3(C)CCC4c5cccc(O)c5CCC4C23)s1` (stereo partly drawn) [Compound 90, 3-((13S,15R)-4-hydroxy-13-methyl-17-oxo-7,8,9,11,12,13,14,15,16,17-decahydro-6H-cyclopenta[a]phenanthren-15-yl)-N-(5-methylthiazol-2-yl)propanamide] gave an inhibition at 1 µM [1] of 0% and an inhibition at 1 µM [2] of 94%.
With `Cc1cnc(NC(=O)CC[C@@H]2CC(=O)[C@@]3(C)CCC4c5ccc6oc(=O)[nH]c6c5CCC4C23)s1` (stereo partly drawn) [Compound 51, 3-((7aS,10R)-7a-methyl-2,8-dioxo-2,5b,6,7,7a,8,9,10,10a,10b,11,12-dodecahydro-1H-cyclopenta[7,8]phenanthro[1,2-d]oxazol-10-yl)-N-(5-methylthiazol-2-yl)propanamide] the inhibition at 1 µM [1] was 1% and the inhibition at 1 µM [2] was 78%.
With `Cc1cnc(NC(=O)CC[C@@H]2CC(=O)[C@@]3(C)CCC4c5cc(N)ccc5CCC4C23)s1` (stereo partly drawn) [Compound 87, 3-((13S,15R)-2-amino-13-methyl-17-oxo-7,8,9,11,12,13,14,15,16,17-decahydro-6H-cyclopenta[a]phenanthren-15-yl)-N-(5-methylthiazol-2-yl)propanamide] the inhibition at 1 µM [1] was 2% and the inhibition at 1 µM [2] was 87%.
`Cc1cnc(NC(=O)CC[C@@H]2CC(=O)[C@@]3(C)CCC4c5cc(F)ccc5CCC4C23)s1` (stereo partly drawn) [Compound 86, 3-((13S,15R)-2-fluoro-13-methyl-17-oxo-7,8,9,11,12,13,14,15,16,17-decahydro-6H-cyclopenta[a]phenanthren-15-yl)-N-(5-methylthiazol-2-yl)propanamide] showed an inhibition at 1 µM [1] of 0% and an inhibition at 1 µM [2] of 92%.
In the case of `Cc1cnc(NC(=O)CC[C@@H]2CC(=O)[C@@]3(C)CCC4c5ccc(OP(=O)(O)O)cc5CCC4C23)s1` (stereo partly drawn) [Compound 7, Phosphoric acid mono-{(13S,15R)-13-methyl-15-[2-(5-methylthiazol-2-ylcarbamoyl)-ethyl]-17-oxo-7,8,9,11,12,13,14,15,16,17-decahydro-6H-cyclopenta[a]phenanthren-3-yl} ester], the “17β-HSD2 Inhibition % at 1 μM” value [1] is reported as 3% and the inhibition at 1 µM [2] is reported as 80%.
`CCOC(=O)Oc1ccc2c(c1)CCC1C2CC[C@]2(C)C(=O)C[C@@H](CCC(=O)Nc3ncc(C)s3)C12` (stereo partly drawn) [Compound 20, Ethyl ((13S,15R)-13-methyl-15-(3-((5-methylthiazol-2-yl)amino)-3-oxopropyl)-17-oxo-7,8,9,11,12,13,14,15,16,17-decahydro-6H-cyclopenta[a]phenanthren-3-yl) carbonate] was tested, and the inhibition at 1 µM [1] was 0% and the inhibition at 1 µM [2] was 52%.
`Cc1cnc(NC(=O)CC[C@@H]2CC(=O)[C@@]3(C)CCC4c5cc(Br)c(O)c(F)c5CCC4C23)s1` (stereo partly drawn) [Compound 71, 3-((13S,15R)-2-bromo-4-fluoro-3-hydroxy-13-methyl-17-oxo-7,8,9,11,12,13,14,15,16,17-decahydro-6H-cyclopenta[a]phenanthren-15-yl)-N-(5-methylthiazol-2-yl)propanamide] showed an inhibition at 1 µM [1] of 7% and an inhibition at 1 µM [2] of 91%.
For `Cc1nc2c3c(ccc2o1)C1CC[C@]2(C)C(=O)C[C@@H](CCC(=O)Nc4ncc(C)s4)C2C1CC3` (stereo partly drawn) [Compound 49, 3-((7aS,10R)-2,7a-dimethyl-8-oxo-6,7,7a,8,9,10,10a,10b,11,12-decahydro-5bH-cyclopenta[7,8]phenanthro[1,2-d]oxazol-10-yl)-N-(5-methylthiazol-2-yl)propanamide], the inhibition at 1 µM [1] was 1% and the inhibition at 1 µM [2] was 84%.
`Cc1cnc(NC(=O)CC[C@@H]2CC(=O)[C@@]3(C)CCC4c5cc([N+](=O)[O-])c(O)c(Cl)c5CCC4C23)s1` (stereo partly drawn) [Compound 75, 3-((13S,15R)-4-chloro-3-hydroxy-13-methyl-2-nitro-17-oxo-7,8,9,11,12,13,14,15,16,17-decahydro-6H-cyclopenta[a]phenanthren-15-yl)-N-(5-methylthiazol-2-yl)propanamide] showed an inhibition at 1 µM [1] of 2% and an inhibition at 1 µM [2] of 89%.
For `Cc1cnc(NC(=O)CC[C@@H]2CC(=O)[C@@]3(C)CCC4c5ccc(OS(C)(=O)=O)c(N)c5CCC4C23)s1` (stereo partly drawn) [Compound 40, (13S,15R)-4-amino-13-methyl-15-(3-((5-methylthiazol-2-yl)amino)-3-oxopropyl)-17-oxo-7,8,9,11,12,13,14,15,16,17-decahydro-6H-cyclopenta[a]phenanthren-3-yl methanesulfonate], the inhibition at 1 µM [1] was 1% and the inhibition at 1 µM [2] was 75%.
